Data taken from patent US5866087A, “Calixarene derivatives, their preparation process and their use for extracting actinides and lanthanides” (priority 1995, dated 1999).

Columns and labels:
[1] = liquid-liquid extraction from aqueous nitric solution, distribution coefficient D; format: physicochemical; conditions: for D(distribution coefficient) 152-Eu: pH ≈0, 1 hour contacting
Experimental: In these examples, an evaluation takes place of the effectiveness of the calixarenes of table 1 for extracting plutonium, neptunium and americium, as well as europium (simulating all the trivalent lanthanides) of an aqueous solution containing one of these elements. The composition of the aqueous solution is as follows:
[…] Contacting takes place in a 20 ml polypropylene tube, which undergoes stirring. After 1 hour of contacting, the two phases are allowed to settle and the activity of each phase is counted by liquid scintillation or α and γ spectrometries.
The distribution coefficient D is then determined and this corresponds to the ratio of the activity of actinide in the organic phase to the activity of actinide in the aqueous phase.

[2] = supported liquid membrane transport into aqueous reextraction solution; format: physicochemical; conditions: for Percentage transported in 6 h. 237 Np / Percentage transported in 6 h. 239 Pu / Percentage transported in 6 h. 241 Am / Percentage of 239Pu transported in 24 h / Percentage transported in 24 h. 237 Np / Percentage transported in 24 h. 241 Am / Percentage transported in 6 h. 152 Eu / Percentage transported in 24 h. 152 Eu: supported liquid membrane, 0.001 or 0.0001M calixarene (CMPO 10^-2 M); for Permeability (cm/h) 237 Np / Permeability (cm/h) 239 Pu / Permeability (cm/h) 241 Am / Permeability (cm/h) 152 Eu: CELGARD 2500 membrane, nitrophenylhexyl ether with 0.001 or 0.0001M calixarene (CMPO 10^-2 M), reextraction 1 mole/l methylene diphosphonic acid
Source text: These examples use the second embodiment of the process according to the invention for extracting europium, neptunium, plutonium and americium from aqueous solutions having the same compositions as those used in examples 7 to 16. These examples use the device shown in the attached drawing.
This device comprises an enclosure 1 subdivided into two compartents 3 and 5 by a supported liquid membrane 7, constituted by a microporous polypropylene membrane marketed under the name CELGARD 2500 and having the following characteristics:
membrane thickness: 0.025 mm.
The pores of this membrane are filled with an organic phase constituted by nitrophenylhexyl ether incorporating 0.001 or 0.0001M of calixarene.
Compartment 3 contains 50 ml of aqueous solution (NaNO3 :4 mole/l, HNO3 : 1mole/l with Eu, Np, Pu, Am); and compartment 5 contains 50ml of an aqueous reextraction solution constituted by an aqueous solution with 1 mole/l of methylene diphosphonic acid.
The two solutions are stirred and the initial activity of the solution of compartment 3 is determined, followed by the activity of the aqueous reextraction solution of compartment 5 by liquid α spectrometry and the operation is continued for one day. From it is deduced the percentage of neptunium, plutonium, americium and europium recovered in the aqueous reextraction solution after 6 and 24 h.
The calixarenes used, the permeability (in cm h^-1) of the membrane to Np and Pu, as well as the %, at the end of 6 and 24 h,of Eu, Am, Np and Pu recovered are given in table 3.

[3] = calixarene 0.001M in nitrophenyloctylether, aqueous HNO3, NaNO3 4 mole/l
[4] = calixarene 0.001M in nitrophenyloctylether, aqueous HNO3, NaNO3 4 mole/l, 1 hour, * = precipitation
[5] = CMPO 0.01M in nitrophenyl hexyl ether, comparative
[6] = calixarene 0.0001M in nitrophenyloctylether, aqueous HNO3, NaNO3 4 mole/l, 1 hour, * = precipitation
[7] = calixarene 0.0005M, aqueous HNO3, NaNO3 4 mole/l, 1 hour

| Compound | D(distribution coefficient) 152-Eu [1, 3] | D(distribution coefficient) 237-Np [1, 4] | D(distribution coefficient) 239-Pu [1, 4] | D(distribution coefficient) 241-Am [1, 4] | Percentage transported in 6 h. 237 Np [2] [%] | Percentage transported in 6 h. 239 Pu [2] [%] | Percentage transported in 6 h. 241 Am [2] [%] | Percentage of 239Pu transported in 24 h [2] [%] | Percentage transported in 24 h. 237 Np [2] [%] | Percentage transported in 24 h. 241 Am [2] [%] | Permeability (cm/h) 237 Np [2] [cm/h] | Permeability (cm/h) 239 Pu [2] [cm/h] | Permeability (cm/h) 241 Am [2] [cm/h] | other results |
| --- | --- | --- | --- | --- | --- | --- | --- | --- | --- | --- | --- | --- | --- | --- |
| CCCCCCCCCCOc1c2cc(NC(=O)CP(=O)(c3ccccc3)c3ccccc3)cc1Cc1cc(NC(=O)CP(=O)(c3ccccc3)c3ccccc3)cc(c1OC)Cc1cc(NC(=O)CP(=O)(c3ccccc3)c3ccccc3)cc(c1OCCCCCCCCCC)Cc1cc(NC(=O)CP(=O)(c3ccccc3)c3ccccc3)cc(c1OC)C2 [Compound 6, 25, 27 didecyloxy-26,28-dimethoxy-5,11, 17,23-(diphenylphosphinoxido-acetamido) calix[4]arene] | > 100 | 3 | 130 | 240 | 49.4 | 97.1 | 94.2 | 100 | 68.3 | 94.9 | 1.6 | 6.4 | 2.9 |  |
| CCCCCCCCP(=O)(CC(=O)N(CC(C)C)CC(C)C)c1ccccc1 (centres unmarked) [CMPO, reference compound] |  |  |  |  | 50 | 99 | 9.8 | 100 | 68 | 45 | 0.74 | 3.44 | 0.17 | D(distribution coefficient) 237-Np [1, 5]: 0.85; D(distribution coefficient) 239-Pu [1, 5]: 22; D(distribution coefficient) 241-Am [1, 5]: 1.2 |
| CCCCCCCCCCOc1c2cc(NC(=O)CP(=O)(c3ccccc3)c3ccccc3)cc1Cc1cc(NC(=O)CP(=O)(c3ccccc3)c3ccccc3)cc(c1OCCCCCCCCCC)Cc1cc(NC(=O)CP(=O)(c3ccccc3)c3ccccc3)cc(c1OCCCCCCCCCC)Cc1cc(NC(=O)CP(=O)(c3ccccc3)c3ccccc3)cc(c1OCCCCCCCCCC)C2 [Compound 2, tetra-O-decyl tetrakis (diphenyl phosphinoxidoacetamido)calix[4]arene] | > 100 | 2 | 90 | 100 | 73 | 82 | 95.5 | 83 | 80 | 100 | 3 | 3.6 | 5 |  |
| CCCCCCCCCCCCCCCCOc1c2cc(NC(=O)CP(=O)(c3ccccc3)c3ccccc3)cc1Cc1cc(NC(=O)CP(=O)(c3ccccc3)c3ccccc3)cc(c1OCCCCCCCCCCCCCCCC)Cc1cc(NC(=O)CP(=O)(c3ccccc3)c3ccccc3)cc(c1OCCCCCCCCCCCCCCCC)Cc1cc(NC(=O)CP(=O)(c3ccccc3)c3ccccc3)cc(c1OCCCCCCCCCCCCCCCC)C2 [Compound 4, tetra-O-hexadecyl tetrakis(diphenyl-phosphinaxidoacetamido)calix[4]arene] |  |  |  |  | 21 | 54 | 3 |  |  |  | 0.46 | 1.4 | 0.08 | D(distribution coefficient) 237-Np [1, 6]: 1.1; D(distribution coefficient) 239-Pu [1, 6]: 27; D(distribution coefficient) 241-Am [1, 6]: 27 |
| CCCCCCCCCCCCCCCCCCOc1c2cc(NC(=O)CP(=O)(c3ccccc3)c3ccccc3)cc1Cc1cc(NC(=O)CP(=O)(c3ccccc3)c3ccccc3)cc(c1OCCCCCCCCCCCCCCCCCC)Cc1cc(NC(=O)CP(=O)(c3ccccc3)c3ccccc3)cc(c1OCCCCCCCCCCCCCCCCCC)Cc1cc(NC(=O)CP(=O)(c3ccccc3)c3ccccc3)cc(c1OCCCCCCCCCCCCCCCCCC)C2 [Compound 5] |  |  |  |  |  |  |  |  |  |  |  |  |  | D(distribution coefficient) 237-Np [1, 6]: 1.5; D(distribution coefficient) 239-Pu [1, 6]: 24; D(distribution coefficient) 241-Am [1, 6]: 21 |
| CCCCCCCCCCCCOc1c2cc(NC(=O)CP(=O)(c3ccccc3)c3ccccc3)cc1Cc1cc(NC(=O)CP(=O)(c3ccccc3)c3ccccc3)cc(c1OCCCCCCCCCCCC)Cc1cc(NC(=O)CP(=O)(c3ccccc3)c3ccccc3)cc(c1OCCCCCCCCCCCC)Cc1cc(NC(=O)CP(=O)(c3ccccc3)c3ccccc3)cc(c1OCCCCCCCCCCCC)C2 [Compound 1, 25, 26, 27, 28 tetradodecyloxy-tetra-5, 11, 17, 23-(diphenylphosphinoxidoacetamido) calix[4]arene] |  | 4 | > 100 | > 100 | 56 | 84 | 97 | 85 | 66 | 100 | 1.35 | 3.4 | 4.9 | Percentage transported in 6 h. 152 Eu [2]: 95%; Percentage transported in 24 h. 152 Eu [2]: 100%; Permeability (cm/h) 152 Eu [2]: 2.75 cm/h |
| CCCCC(CC)COc1c2cc(NC(=O)CP(=O)(c3ccccc3)c3ccccc3)cc1Cc1cc(NC(=O)CP(=O)(c3ccccc3)c3ccccc3)cc(c1OCC(CC)CCCC)Cc1cc(NC(=O)CP(=O)(c3ccccc3)c3ccccc3)cc(c1OCC(CC)CCCC)Cc1cc(NC(=O)CP(=O)(c3ccccc3)c3ccccc3)cc(c1OCC(CC)CCCC)C2 (centres unmarked) [Compound 10] |  |  |  |  | 19.8 | 53.5 | 27.8 | 76.6 | 30.4 | 62.4 | 0.6 | 2 | 0.5 | D(distribution coefficient) 152-Eu ([1]; calixarene 0.0005M, aqueous HNO3, NaNO3 4 mole/l): 1.5; D(distribution coefficient) 237-Np [1, 7]: 2; D(distribution coefficient) 239-Pu [1, 7]: 20; D(distribution coefficient) 241-Am [1, 7]: 4.5 |
| CCCCCCCCCCCCCCCCCCOc1c2cc(NC(=O)CP(=O)(c3ccccc3)c3ccccc3)cc1Cc1cc(NC(=O)CP(=O)(c3ccccc3)c3ccccc3)cc(c1OC)Cc1cc(NC(=O)CP(=O)(c3ccccc3)c3ccccc3)cc(c1OCCCCCCCCCCCCCCCCCC)Cc1cc(NC(=O)CP(=O)(c3ccccc3)c3ccccc3)cc(c1OC)C2 [Compound 7] | > 100 | 3 | 170 | 250 | 42.7 | 99.7 | 92.6 | 100 | 59.4 | 99.3 | 1.3 | 7 | 3.2 |  |
| CCCCCCCCCCCCCCOc1c2cc(NC(=O)CP(=O)(c3ccccc3)c3ccccc3)cc1Cc1cc(NC(=O)CP(=O)(c3ccccc3)c3ccccc3)cc(c1OCCCCCCCCCCCCCC)Cc1cc(NC(=O)CP(=O)(c3ccccc3)c3ccccc3)cc(c1OCCCCCCCCCCCCCC)Cc1cc(NC(=O)CP(=O)(c3ccccc3)c3ccccc3)cc(c1OCCCCCCCCCCCCCC)C2 [Compound 3, tetra-O-tetradecyl tetrakis (diphenyl-phosphinoxidoacetamido)calix[4]arene] | > 100 | 1.8 | 90 | > 100 | 54 | 84 | 98 | 88 | 62 | 100 | 1.3 | 2.95 | 5.3 | Percentage transported in 6 h. 152 Eu [2]: 90%; Percentage transported in 24 h. 152 Eu [2]: 98%; Permeability (cm/h) 152 Eu [2]: 2.8 cm/h |
